Literature values, collected in paper PMC3159817 (Journal of chemical information and modeling, 2011).

Legend:
[1] = system: HIV-1 reverse transcriptase Y501 mutants
[2] = system: RNase H active site of RT with DNA:RNA substrate bound

## CC(C)(C)c1ccc(C(=O)NN=Cc2c(O)ccc3ccccc23)cc1 [BBNH, N-(4-tert-butylbenzoyl)-2-hydroxy-1-naphthaldehyde hydrazone]
[1]
  effect of Y501 mutations on inhibition: mutations of Y501 result in resistance to inhibition

## CC(C)c1ccc(O)c(=O)c(O)c1 [β-thujaplicinol]
[2]
  competition with nucleic acid substrate: appears unable to compete with the intact nucleic acid substrates
